Reference: patent US20240057592A1, “PESTICIDE COMPOSITIONS OF PHENOL AND RESORCINOL DIENES AND TRIENES” (METABOLIC INSIGHTS LTD., priority 2020, published 2024)

Assays:
Rhizoctonia solani [1] = assay: In-vivo validation under greenhouse conditions in cucumber seedlings infected with Rhizoctonia solani; conditions: preventative treatment 24 h before inoculation, 7 d after inoculation, best of 9 experiments
Method: (§1) Formulation 3—Three types of stock solutions were used for final CART formulation preparation at 400 ppm: • (A) 0.1% CART solution in water+base (CART dissolved in water to 0.1% and sonicated for 10 mins at room temperature, then Na2CO3 25% stock was added to volume of 4% of the solution. The solution should be clear orange and at pH=8.0. The solution was sonicated for 20 minutes); • (B) 0.4% Xanthan Gum in water (w/w); • (C) 0.6% Silwet in water (w/w). The final formulation which was applied to cucumber seedlings composed of: 40% of stock solution A, 10% of stock solutions B and C, and 40% of water. The final formulation 3 was either applied as 400 ppm of diluted to the required concentrations and applied to cucumber seedlings. Formulation 4—Three types of stock solutions were used for final CART formulation preparation at 400 ppm: • (A) 10% CART in DMSO (CART dissolved in DMSO to 10% (w/w) and sonicated for 5 mins at room temperature); • (B) 0.4% Xanthan Gum in water (w/w); • (C) 0.6% Silwet in water (w/w). The final formulation which was applied to cucumber seedlings composed of: […], 10% of stock solutions B and C, and 76% of water. The final formulation 4 was either applied as 400 ppm of diluted to the required concentrations and applied to cucumber seedlings. […]
(§2) To evaluate the effect of a Cardol triene in infected plants compared to control plants (infected but not treated) the data was analyzed by Student's t-test and the p-value is calculated. […]
• General description: Rhizoctonia disease severity were evaluated following preventative treatment with CART (Cardol triene). […]

Pseudomonas syringae = assay: Microplate based screening of bioactivity against Pseudomonas syringae; assay type: cell-based
Method: • 1) Grow Pseudomonas on LBA plates at 28° C. for 2 days to get a single colony • 2) Transfer a single colony using a sterile toothpick into a 50 ml sterile tube containing 5 ml LB and grow for 24 at 28° C. and 150 RPM • 3) Chill the tube in the fridge for 1 h • 4) Add 7.5 ml of fridge cold, sterile, glycerol solution to the tube—to get 60% glycerol solution • 5) Mix well but gently to get perfect mixing—use vortex at 1000 RPM • 6) Aliquot 100 ul of bacteria suspension in 60% glycerol into 1.5 ml tubes—each aliquot should be enough for screening of 10 microplates • 7) Store the bacteria suspension in 60% glycerol at −20° C.
• 1) Take 1.5 ml tube with 100 ul frozen Pseudomonas suspension from the freezer and thaw it on ice • 2) Prepare in the hood 50 ml tubes with 40 ml fridge cold LB • 3) Mix 40 ul of bacteria suspension with 40 ml fridge cold LB in a 50 ml tube. This amount is enough for activity screening of 10 microplates • 4) Use this suspension for bioactivity screening experiments.
The bioactivity values are in % and reflect the potential of eradicating the target pests. Rules for Bioactivity Relative Value Calculation (Expressed in % from Maximal Value) • a. […] Pseudomonas syringae—activity grade (1/2/3)×repeats #X days of activity/168 (maximal value 3×4×14=168)*100

Pythium aphanidermatum [2] = assay: In-vivo validation under greenhouse conditions in cucumber seedlings infected with Pythium aphanidermatum; conditions: preventative treatment 24 h before inoculation, 7 d after inoculation, best of 9 experiments
Method: as §1, §2
• General description: Pythium aphanidermatum disease severity development was evaluated following preventative treatment by Cardol triene (CART) […]

Rhizoctonia solani [3] = assay: Microplate based assay of bioactivity against Rhizoctonia solani; assay type: cell-based
Excerpt: • 1) Screen plate at 3 more dates: 3 d, 7 d, 14 d and 21 d following the assay start • 2) Calculate the difference of absorbance between each screen and the read at zero time • 3) Calculate the percentage of growth inhibition of each well at each time point. […]

Pythium aphanidermatum [4] = assay: Microplate based screening of bioactivity against Pythium aphanidermatum; assay type: cell-based
Method: The following Materials, methods and equipment were used: • Materials: SCH, PDBC, DMSO • Equipment: Plate reader, Centrifuge, Shaker, Incubator
• Grow Pythium aphanidermatum on SCH in 90 mm petri plates to get sporulating hyphae. […]
• 1) Read out the plate at 3 more dates: 3 d, 7 d, 14 d and 21 d following the assay start • 2) Calculate the difference of absorbance between each readout and the readout at zero time • 3) Calculate the percentage of growth inhibition of each well at each time point. […]

[5] = 10 ul of 250 ppm solution + 40 ul inoculum, activity grade x repeats x days of activity/252*100, read to 21 d

`C=CC/C=C\C/C=C\CCCCCCCc1cc(O)cc(O)c1` [Cardol triene, 5-8Z,11Z,14-pentadecatrien-1-yl-1,3-benzenediol] was tested, and the “efficacy at preventing the plants death” value (Rhizoctonia solani [1]; 100 ppm) was “up to 81.2%”, the “efficacy at preventing the plants death” value (Rhizoctonia solani [1]; 200 ppm) was “up to 100%” and the “efficacy at preventing the plants death” value (Rhizoctonia solani [1]; 400 ppm) was “up to 98.4%”. For the same molecule, the “Relative Activity value (%)” value (Pseudomonas syringae; 10 ul of 250 ppm solution + 40 ul inoculum, activity grade x repeats x days of activity/168*100) was 50%, the “pesticidal activity in words” value (Pseudomonas syringae; summary statement) was “effective pesticides” and the “efficacy at preventing the plants death” value (Pythium aphanidermatum [2]; 100 ppm) was “up to 97.6%”. For the same molecule, the “efficacy at preventing the plants death” value (Pythium aphanidermatum [2]; 200 ppm) was “up to 100%”, the “efficacy at preventing the plants death” value (Pythium aphanidermatum [2]; 400 ppm) was “up to 71.4%” and the “Relative Activity value (%)” value (Rhizoctonia solani [3]; [5]) was 60%. For the same molecule, the “pesticidal activity in words” value (Rhizoctonia solani [3]; summary statement) was “effective pesticides”, the “Relative Activity value (%)” value (Pythium aphanidermatum [4]; [5]) was 100% and the “pesticidal activity in words” value (Pythium aphanidermatum [4]; summary statement) was “effective pesticides”.
